# Assay results reported in patent US20230279002A1, “Polymorphs of Crystalline Forms of 3,10-dimethoxy-5,8,13,13a-tetrahydro-6H-isoquinolino[3,2-a]isoquinolin-9-yl 3-fluorobenzenesulfonate and Salts Thereof” (CVI Pharmaceuticals Limited, priority 2020, published 2023).
# Counter-ions that a name gives are not always drawn.
# How the values were obtained:
# [1] = Phase 1 studies, safety and tolerability in healthy volunteers and hyperlipidemic subjects; assay type: in vivo, human
# Source text: (§1) Compound 1a has undergone a double-blind, randomized phase 1a study conducted in healthy volunteers. […] Currently, a phase 2 POC trial is underway in China in patients with hypercholesterolemia.
# serum PCSK9 = assay: Double-blind, randomized phase 1a study in healthy volunteers; assay type: in vivo, human; settings: 10 days oral 300 mg QD, compared to baseline
# Source text: as §1
# [2] = tested on: serum LDL-C, TC, Apo B, and PCSK9; assay: Proof-of-mechanism phase 1b study in subjects with elevated LDL-C; assay type: in vivo, human; settings: 28 days, compared with placebo cohort
# Source text: as §1
# [3] = Solid stability at 40° C./0% RH (closed) and 40° C./75% RH (open), HPLC; assay type: physicochemical; settings: for 0 day % remaining / 5 day % remaining / 10 day % remaining: solid
# Protocol: Solid stability: 5 mg of 2a was weighed into scintillation vials sealed properly and stored at 40° C./0% RH(closed), 40° C./75% RH(open) under dark conditions to avoid the effect of light on stability. Samples were collected at day 0, 5 and 10 and analyzed by HPLC.
# Solid stability: 5 mg of compound was weighed into vials sealed properly and stored at 40° C./0% RH (closed), 40° C./75% RH (open) under dark conditions to avoid the effect of light. Samples were analyzed by HPLC at days 0, 7, and 21.
# Solid stability of compound 1a: 5 mg compound were accurately weighed into scintillation vials sealed properly and stored at 40° C./0% RH(closed), 40° C./75% RH(open) under dark condition to avoid the effect of light on stability. Samples should be collected at day 0, 5 and 10 days and analyzed by HPLC.
# [4] = Long term stability at 30° C./65% RH; assay type: physicochemical
# [5] = Solubility of salts in water, SGF and FaSSIF at 25° C. for 24 hours (HPLC)
# Protocol: (§2) About 5 mg of seven kinds of salts were weighed into each vial, and 2 mL of medium was added, respectively. The medium included water, SGF and FaSSIF. All samples were stirred at 25° C. for 24 hours.
# [6] = TGA (Thermal Gravimetric Analysis) weight loss; assay type: physicochemical
# Protocol: TGA (Thermal Gravimetric Analysis): Samples of compounds (4˜6 mg) were weighed into the pan, and heated under nitrogen purge using a ramp rate of 20° C./min over the range of 30° C.˜350° C.
# physchem = settings: 25 °C, thermodynamic from solid, Solubility (mg/mL)
# Protocol: as §2
# [7] = Medium: FaSSIF, 25° C., stirred 24 hours, HPLC
# [8] = Medium: SGF, 25° C., stirred 24 hours, HPLC
# [9] = Medium: Water, 25° C., stirred 24 hours, HPLC
molecule,measurement,setting,value
"COc1ccc2c(c1)CCN1Cc3c(ccc(OC)c3OS(=O)(=O)c3cccc(F)c3)C[C@H]21 [Compound 1a, 3,10-dimethoxy-5,8,13,13a-tetrahydro-6H-isoquinolino[3,2-a]isoquinolin-9-yl 3-fluorobenzenesulfonate]",safety profile,[1],favorable safety profile
same,tolerability,[1],well tolerated
same,serum PCSK9 levels,serum PCSK9,significantly reduced
same,serum Apo B,[2],significantly reduced
same,serum LDL-C,[2],significantly reduced
same,serum PCSK9 levels,[2],significantly reduced
same,serum TC,[2],significantly reduced
same,Solid-state stability (HPLC),"[3]; 40° C./0% RH (closed) and 40° C./75% RH (open), dark, up to 10 days",substantially stable
same,0 day % remaining,"[3]; 40° C. (0% RH, closed)",99.65%
same,5 day % remaining,"[3]; 40° C. (0% RH, closed)",101.65%
same,10 day % remaining,"[3]; 40° C. (0% RH, closed)",100.85%
same,0 day % remaining,[3]; 40° C./75% RH (open),99.65%
same,5 day % remaining,[3]; 40° C./75% RH (open),100.66%
same,10 day % remaining,[3]; 40° C./75% RH (open),101.31%
same,% Remaining,[4]; 1 month,100.30%
same,% Remaining,[4]; 3 month,100.00%
same,% Remaining,[4]; 6 month,99.30%
same,% Remaining,[4]; 12 month,99.60%
same,% Remaining,[4]; 18 month,99.20%
same,% Remaining,[4]; 24 month,99.50%
same,% Remaining,[4]; 36 month,100.40%
same,% Remaining,[4]; time 0,100.10%
same,Long term stability,[4]; up to 36 months,stable
COc1ccc2c(c1)CCN1Cc3c(ccc(OC)c3OS(=O)(=O)c3cccc(F)c3)C[C@H]21 [besylate],solubility,[5]; [7],1 µg/mL
same,solubility,[5]; [8],214 µg/mL
same,solubility,[5]; [9],110 µg/mL
same,TGA weight loss (from RT to 120° C.),[6],0.24%
same,TGA weight loss (in words),[6]; room temperature to 120° C.,no significant weight loss
COc1ccc2c(c1)CCN1Cc3c(ccc(OC)c3OS(=O)(=O)c3cccc(F)c3)C[C@H]21 [hydrobromide salt],solubility,[5]; [7],2 µg/mL
same,solubility,[5]; [8],156 µg/mL
same,solubility,[5]; [9],163 µg/mL
same,TGA weight loss (from RT to 120° C.),[6],1.50%
same,TGA weight loss,[6]; room temperature to 120° C.,1.50%
COc1ccc2c(c1)CCN1Cc3c(ccc(OC)c3OS(=O)(=O)c3cccc(F)c3)C[C@H]21 [maleate],solubility,[5]; [7],1 µg/mL
same,solubility,[5]; [8],221 µg/mL
same,solubility,[5]; [9],86 µg/mL
same,TGA weight loss (from RT to 120° C.),[6],0.44%
same,TGA weight loss (in words),[6]; room temperature to 120° C.,almost no obvious weight loss
COc1ccc2c(c1)CCN1Cc3c(ccc(OC)c3OS(=O)(=O)c3cccc(F)c3)C[C@H]21 [sulfate],solubility at 24 h,"[5]; FaSSIF, 25 °C, fassif, thermodynamic from solid, Solubility (mg/mL), Medium: FaSSIF, 25° C., stirred 24 hours, HPLC",2 µg/mL
same,solubility,[5]; [8],496 µg/mL
same,solubility,[5]; [9],1370 µg/mL
same,Solubility compared with other polymorphs (summary),[5]; summary of the Examples,generally more soluble than other polymorphs
same,Solubility compared with other salts,"[5]; water and SGF, 25° C., 24 hours",better than that of other salts
same,TGA weight loss (from RT to 120° C.),[6],0.12%
same,TGA weight loss (in words),[6]; room temperature to 120° C.,no weight loss
COc1ccc2c(c1)CCN1Cc3c(ccc(OC)c3OS(=O)(=O)c3cccc(F)c3)C[C@H]21 [tosylate],solubility at 24 h,physchem; fassif,< 1 µg/mL
same,solubility at 24 h,physchem; simulated gastric fluid,399 µg/mL
same,solubility at 24 h,physchem; water,411 µg/mL
same,TGA weight loss (from RT to 120° C.),[6],0.60%
same,TGA weight loss (in words),[6]; room temperature to 120° C.,almost no significant weight loss
hydrochloride,TGA weight loss (from RT to 120° C.),[6],0.09%
